Measurements: ChEMBL document CHEMBL4304773, “Nitroimidazole-containing compounds and their antibacterial and antitubercular activities” (2019)
Converted amounts (≈) assume the structure as drawn.

Assays:
Type in all cases: functional
Staphylococcus aureus [1] = assay: Antibacterial activity against Staphylococcus aureus
Bacillus subtilis = assay: Antibacterial activity against Bacillus subtilis
Escherichia coli [2] = assay: Antibacterial activity against Escherichia coli
Pseudomonas aeruginosa [3] = assay: Antibacterial activity against Pseudomonas aeruginosa
Candida albicans = assay: Antifungal activity against Candida albicans
Enterococcus faecalis = assay: Antibacterial activity against Enterococcus faecalis after 24 hrs
Staphylococcus aureus [4] = assay: Antibacterial activity against Staphylococcus aureus ATCC 25923 after 24 hrs; details: ATCC 25923, 24 h
Staphylococcus aureus [5] = assay: Antibacterial activity against Staphylococcus aureus ATCC 29213 after 24 hrs; details: ATCC 29213, 24 h
Staphylococcus aureus [6] = assay: Antibacterial activity against methicillin-resistant Staphylococcus aureus after 24 hrs
Pseudomonas aeruginosa [7] = assay: Antibacterial activity against Pseudomonas aeruginosa after 24 hrs
Pseudomonas aeruginosa [8] = assay: Antibacterial activity against Pseudomonas aeruginosa ATCC 27853 after 24 hrs; details: ATCC 27853, 24 h
Escherichia coli [9] = assay: Antibacterial activity against Escherichia coli ATCC 25922 after 24 hrs; details: ATCC 25922, 24 h
Klebsiella pneumoniae = assay: Antibacterial activity against Klebsiella pneumoniae after 24 hrs

SMILES | MIC (Staphylococcus aureus [1]) | MIC (Bacillus subtilis) [µg/mL] | MIC (Escherichia coli [2]) [µg/mL] | MIC (Pseudomonas aeruginosa [3]) [µg/mL] | MIC (Candida albicans) [µg/mL] | MIC (Enterococcus faecalis) [µM] | MIC (Staphylococcus aureus [4]) [µM] | MIC (Staphylococcus aureus [5]) [µM] | MIC (Staphylococcus aureus [6]) [µM] | MIC (Pseudomonas aeruginosa [7]) [µM] | MIC (Pseudomonas aeruginosa [8]) [µM] | MIC (Escherichia coli [9]) [µM] | MIC (Klebsiella pneumoniae) [µM]
COc1ccccc1Cc1nnc(Cn2c([N+](=O)[O-])cnc2C)o1 | 3.12 to 4.56 µg/mL | 3.12 to 4.56 (≈ 9.47 to 13.8 µM) | 3.12 to 4.56 (≈ 9.47 to 13.8 µM) | 3.12 to 4.56 (≈ 9.47 to 13.8 µM) | – | – | – | – | – | – | – | – | –
COc1ccc(C2(C)OC(Cn3c([N+](=O)[O-])cnc3C)=NN2C(C)=O)cc1 (stereo not drawn) | 0.25 to 0.5 µg/mL | 0.25 to 0.5 (≈ 0.67 to 1.34 µM) | 0.25 to 0.5 (≈ 0.67 to 1.34 µM) | 0.25 to 0.5 (≈ 0.67 to 1.34 µM) | 0.25 to 0.5 (≈ 0.67 to 1.34 µM) | – | – | – | – | – | – | – | –
CCCCCCOc1c(OC)cc(/C=C(\C#N)n2cc([N+](=O)[O-])nc2C)c2c1CN1CCc3cc4c(cc3C1C2)OCO4 (stereo not drawn) | – | – | – | – | – | 3 to 1020 (≈ 1.76 to 598 µg/mL) | 3 to 1020 (≈ 1.76 to 598 µg/mL) | 3 to 1020 (≈ 1.76 to 598 µg/mL) | 3 to 1020 (≈ 1.76 to 598 µg/mL) | 3 to 1020 (≈ 1.76 to 598 µg/mL) | 3 to 1020 (≈ 1.76 to 598 µg/mL) | 3 to 1020 (≈ 1.76 to 598 µg/mL) | 3 to 1020 (≈ 1.76 to 598 µg/mL)
CCCCCCCCOc1c(OC)cc(/C=C(\C#N)n2cc([N+](=O)[O-])nc2C)c2c1CN1CCc3cc4c(cc3C1C2)OCO4 (stereo not drawn) | – | – | – | – | – | 3 to 1020 (≈ 1.84 to 627 µg/mL) | 3 to 1020 (≈ 1.84 to 627 µg/mL) | 3 to 1020 (≈ 1.84 to 627 µg/mL) | 3 to 1020 (≈ 1.84 to 627 µg/mL) | 3 to 1020 (≈ 1.84 to 627 µg/mL) | 3 to 1020 (≈ 1.84 to 627 µg/mL) | 3 to 1020 (≈ 1.84 to 627 µg/mL) | 3 to 1020 (≈ 1.84 to 627 µg/mL)
C=CCOc1c(OC)cc(/C=C(\C#N)n2cc([N+](=O)[O-])nc2C)c2c1CN1CCc3cc4c(cc3C1C2)OCO4 (stereo not drawn) | – | – | – | – | – | 3 to 1020 (≈ 1.62 to 553 µg/mL) | 3 to 1020 (≈ 1.62 to 553 µg/mL) | 3 to 1020 (≈ 1.62 to 553 µg/mL) | 3 to 1020 (≈ 1.62 to 553 µg/mL) | 3 to 1020 (≈ 1.62 to 553 µg/mL) | 3 to 1020 (≈ 1.62 to 553 µg/mL) | 3 to 1020 (≈ 1.62 to 553 µg/mL) | 3 to 1020 (≈ 1.62 to 553 µg/mL)
COc1cc(/C=C(\C#N)n2cc([N+](=O)[O-])nc2C)c2c(c1OCc1ccc(Cl)cc1)CN1CCc3cc4c(cc3C1C2)OCO4 (stereo not drawn) | – | – | – | – | – | 3 to 1020 (≈ 1.88 to 639 µg/mL) | 3 to 1020 (≈ 1.88 to 639 µg/mL) | 3 to 1020 (≈ 1.88 to 639 µg/mL) | 3 to 1020 (≈ 1.88 to 639 µg/mL) | 3 to 1020 (≈ 1.88 to 639 µg/mL) | 3 to 1020 (≈ 1.88 to 639 µg/mL) | 3 to 1020 (≈ 1.88 to 639 µg/mL) | 3 to 1020 (≈ 1.88 to 639 µg/mL)
COc1cc(/C=C(\C#N)n2cc([N+](=O)[O-])nc2C)c2c(c1OCc1ccccc1Cl)CN1CCc3cc4c(cc3C1C2)OCO4 (stereo not drawn) | – | – | – | – | – | 3 to 1020 (≈ 1.88 to 639 µg/mL) | 3 to 1020 (≈ 1.88 to 639 µg/mL) | 3 to 1020 (≈ 1.88 to 639 µg/mL) | 3 to 1020 (≈ 1.88 to 639 µg/mL) | 3 to 1020 (≈ 1.88 to 639 µg/mL) | 3 to 1020 (≈ 1.88 to 639 µg/mL) | 3 to 1020 (≈ 1.88 to 639 µg/mL) | 3 to 1020 (≈ 1.88 to 639 µg/mL)
COc1cc(/C=C(\C#N)n2cc([N+](=O)[O-])nc2C)c2c(c1OCC(C)=O)CN1CCc3cc4c(cc3C1C2)OCO4 (stereo not drawn) | – | – | – | – | – | 3 to 1020 (≈ 1.67 to 569 µg/mL) | 3 to 1020 (≈ 1.67 to 569 µg/mL) | 3 to 1020 (≈ 1.67 to 569 µg/mL) | 3 to 1020 (≈ 1.67 to 569 µg/mL) | 3 to 1020 (≈ 1.67 to 569 µg/mL) | 3 to 1020 (≈ 1.67 to 569 µg/mL) | 3 to 1020 (≈ 1.67 to 569 µg/mL) | 3 to 1020 (≈ 1.67 to 569 µg/mL)
Cc1nc([N+](=O)[O-])cn1Cc1nn(CN2CCNCC2)c(=S)o1 | 184 µM | – | – | – | – | – | – | – | – | – | – | – | –

Further lines, with some results ahead:

MIC (Staphylococcus aureus [1]) | MIC (Bacillus subtilis) [µg/mL] | MIC (Escherichia coli [2]) [µg/mL] | MIC (Pseudomonas aeruginosa [3]) [µg/mL] | MIC (Candida albicans) [µg/mL] | SMILES | MIC (Enterococcus faecalis) [µM] | MIC (Staphylococcus aureus [4]) [µM] | MIC (Staphylococcus aureus [5]) [µM] | MIC (Staphylococcus aureus [6]) [µM] | MIC (Pseudomonas aeruginosa [7]) [µM] | MIC (Pseudomonas aeruginosa [8]) [µM] | MIC (Escherichia coli [9]) [µM] | MIC (Klebsiella pneumoniae) [µM]
0.25 to 0.5 µg/mL | 0.25 to 0.5 (≈ 0.687 to 1.37 µM) | 0.25 to 0.5 (≈ 0.687 to 1.37 µM) | 0.25 to 0.5 (≈ 0.687 to 1.37 µM) | 0.25 to 0.5 (≈ 0.687 to 1.37 µM) | CC(=O)N1N=C(Cn2c([N+](=O)[O-])cnc2C)OC1c1ccc(Cl)cc1 (stereo not drawn) | – | – | – | – | – | – | – | –
0.25 to 0.5 µg/mL | 0.25 to 0.5 (≈ 0.728 to 1.46 µM) | 0.25 to 0.5 (≈ 0.728 to 1.46 µM) | 0.25 to 0.5 (≈ 0.728 to 1.46 µM) | 0.25 to 0.5 (≈ 0.728 to 1.46 µM) | CC(=O)N1N=C(Cn2c([N+](=O)[O-])cnc2C)OC1c1ccc(C)cc1 (stereo not drawn) | – | – | – | – | – | – | – | –
0.25 to 0.5 µg/mL | 0.25 to 0.5 (≈ 0.696 to 1.39 µM) | 0.25 to 0.5 (≈ 0.696 to 1.39 µM) | 0.25 to 0.5 (≈ 0.696 to 1.39 µM) | 0.25 to 0.5 (≈ 0.696 to 1.39 µM) | COc1ccc(C2OC(Cn3c([N+](=O)[O-])cnc3C)=NN2C(C)=O)cc1 (stereo not drawn) | – | – | – | – | – | – | – | –
0.25 to 0.5 µg/mL | 0.25 to 0.5 (≈ 0.67 to 1.34 µM) | 0.25 to 0.5 (≈ 0.67 to 1.34 µM) | 0.25 to 0.5 (≈ 0.67 to 1.34 µM) | 0.25 to 0.5 (≈ 0.67 to 1.34 µM) | CC(=O)N1N=C(Cn2c([N+](=O)[O-])cnc2C)OC1c1ccc2c(c1)OCO2 (stereo not drawn) | – | – | – | – | – | – | – | –
0.25 to 0.5 µg/mL | 0.25 to 0.5 (≈ 0.668 to 1.34 µM) | 0.25 to 0.5 (≈ 0.668 to 1.34 µM) | 0.25 to 0.5 (≈ 0.668 to 1.34 µM) | 0.25 to 0.5 (≈ 0.668 to 1.34 µM) | CC(=O)N1N=C(Cn2c([N+](=O)[O-])cnc2C)OC1c1ccc([N+](=O)[O-])cc1 (stereo not drawn) | – | – | – | – | – | – | – | –
